Data: US20120295935A1, “MIXED AMINAL PHARMACEUTICAL COMPOSITIONS AND USES THEREOF” (priority 2010, published 2012)

Tests used:
female SD rats = experiment: Rat tibia healing of surgical wounds (micro CT); format: in vivo; settings: for cortical thickness / cortical thickness elevated vs control: tibia
Description: Rat tibia-healing of surgical wounds. Twenty female SD rats (˜8 weeks, body weight ˜180 g) received a surgical hole with ˜2.0 mm in diameter in the left and right tibiae (Zhang P., et al., Knee loading accelerates bone healing in mice, J. Bone Miner. Res. 22:1979-1987 (2007)). The hole was located on the medial surface ˜15 mm distant apart from the proximal end of the tibia (Chiba S., et al., Molecular analysis of defect healing in rat diaphyseal bone, J. Vet. Med. Sci. 63:603-606 (2001)). During the first 5 days, 100 μl of salubrinal solution at dosage of 0.025 mg/kg was injected into the left limb and a PBS solution (vehicle control) in the right limb (Wang J W, et al., Locally applied simvastatin promotes fracture healing in ovariectomized rat, Osteoporosis Int. 18:1641-1650 (2007)). Injection was subcutaneous targeted to the wound site. Rats were sacrificed on days 10 or 20 after surgery, and the axial and transverse length of the holes as well as cortical thickness (1.5 mm proximal and distal to the center of the hole) were determined with micro CT imaging (μCT-20, Scanco Medical AG).

C57/BL/6 female mice = experiment: Mouse tibia bone formation, ankle loading plus local salubrinal; format: in vivo
Method: Mouse tibia-bone formation: Twenty C57/BL/6 female mice (˜8 weeks, body weight ˜18 g) were employed to examine the combined effects of ankle loading and local administration of salubrinal to the tibia (Zhang P, et al., Salubrinal stimulates anabolic responses in mouse femora, 55th Ann Meeting ORS (2009)). Local administration was targeted into a bone marrow cavity from the proximal tibia. A total volume of 20 μl PBS was injected to the left hindlimb with or without 0.025 mg/kg (100 μM) salubrinal (Calbiochem) using a micro-syringe with a 0.5-inch #26-gauge needle (Worsham D N, et al., In vivo gene transfer into adult stem cells in unconditioned mice by in situ delivery of a lentiviral vector, Mol. Ther. 14:514-24 (2006); Zhu Y, et al., eIF-2a protects brainstem motoneurons in a murine model of sleep apnea, J. Neurosci. 28:2168-78 (2008)). In examination of the combined effects of mechanical loading and salubrinal administration, ankle loading was given for 5 consecutive days after administration of salubrinal on each day. The mouse was placed in an anesthetic induction chamber to cause sedation and then mask-anesthetized using 1.5% isoflurane. With a custom-made piezoelectric mechanical loader, loads were applied to the left ankle for 5 min/day in the lateral-medial direction. The loading frequency was 5 Hz, and the peak-to-peak force was 0.5 N (FIG. 12). The right hindlimb was used as a sham-loaded control (Zhang P, et al., Joint loading-driven bone formation and signaling pathways predicted from genome-wide expression profiles, Bone 44:989-998 (2009)).

[1] = ankle loading and salubrinal injection
[2] = tibia, 0.025 mg/kg (100 μM) plus ankle loading, 5 days

## O=C(/C=C/c1ccccc1)NC(NC(=S)Nc1cccc2cccnc12)C(Cl)(Cl)Cl (stereo not drawn) [salubrinal]
Female SD rats; tibia medial cortex, day 10
  size of the wounds: 1.614±0.014 mm
Female SD rats; tibia medial cortex, day 10, 0.025 mg/kg s.c. first 5 days
  wound size smaller vs control: 12.3%
Female SD rats; tibia medial cortex, day 20
  size of the wounds: 1.375±0.033 mm
  wound size decreased vs control: 19.1%
Female SD rats; day 10
  cortical thickness: 0.434±0.006 mm
  cortical thickness elevated vs control: 11.6%
Female SD rats; day 20
  cortical thickness: 0.537±0.005 mm
  cortical thickness elevated vs control: 20.3%
C57/BL/6 female mice; [1]
  relative increase in BMC vs ankle loading alone: 1.5 fold
  relative increase in BMD vs ankle loading alone: 2.3 fold
C57/BL/6 female mice; [2]
  BMC: 0.0154 ± 0.0004 g
  BMD: 0.0443±0.0011 g/cm^2
